The values below come from publication PMC8708751, “Hit Identification of a Novel Quinazoline Sulfonamide as a Promising EphB3 Inhibitor: Design, Virtual Combinatorial Library, Synthesis, Biological Evaluation, and Docking Simulation Studies” (Pharmaceuticals, 2021).

Common to all, as to assay type: biochemical
The target of one experiment is T1, EGFR kinase (Homo sapiens, UniProt P00533).
T1 construct: purchased Reaction Biology Co. (Kinase HotSpot service)
Briefly: EGFR kinase inhibition assay (HotSpot).

The target in a further experiment is T2, EphB1 (Homo sapiens, UniProt P54762).
T2 construct: purchased Reaction Biology Co. (Kinase HotSpot service)
T2 sequence (P54762 18-984): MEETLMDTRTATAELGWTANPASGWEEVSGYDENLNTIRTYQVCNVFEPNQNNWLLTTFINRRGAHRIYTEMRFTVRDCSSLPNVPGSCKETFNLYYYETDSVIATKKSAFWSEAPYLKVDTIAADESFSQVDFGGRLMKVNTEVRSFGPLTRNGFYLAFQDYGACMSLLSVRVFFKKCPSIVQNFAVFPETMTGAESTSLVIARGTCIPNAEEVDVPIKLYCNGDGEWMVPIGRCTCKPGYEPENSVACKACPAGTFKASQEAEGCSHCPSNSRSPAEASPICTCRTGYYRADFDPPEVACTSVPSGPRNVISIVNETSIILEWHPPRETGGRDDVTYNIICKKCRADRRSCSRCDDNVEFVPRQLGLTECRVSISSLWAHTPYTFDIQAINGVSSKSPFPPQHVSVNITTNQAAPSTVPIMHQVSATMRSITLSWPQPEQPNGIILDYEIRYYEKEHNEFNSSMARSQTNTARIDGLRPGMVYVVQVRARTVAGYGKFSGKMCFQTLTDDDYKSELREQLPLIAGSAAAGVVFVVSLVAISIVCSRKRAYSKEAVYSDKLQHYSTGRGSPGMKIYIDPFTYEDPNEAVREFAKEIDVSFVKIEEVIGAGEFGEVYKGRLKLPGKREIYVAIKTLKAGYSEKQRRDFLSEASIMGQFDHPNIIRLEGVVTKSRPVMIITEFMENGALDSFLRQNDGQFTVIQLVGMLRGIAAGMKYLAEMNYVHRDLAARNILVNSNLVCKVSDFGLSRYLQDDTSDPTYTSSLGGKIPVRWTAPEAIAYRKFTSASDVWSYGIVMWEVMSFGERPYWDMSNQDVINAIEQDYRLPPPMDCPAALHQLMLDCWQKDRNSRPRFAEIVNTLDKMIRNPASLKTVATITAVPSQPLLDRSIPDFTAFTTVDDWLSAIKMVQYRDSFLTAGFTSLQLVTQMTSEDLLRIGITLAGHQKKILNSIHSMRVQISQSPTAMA
Briefly: Kinase panel assay, EphB1. As to the method:
(§1) The HotSpot assay platform contains specific kinase/substrate pairs along with required cofactors. Base reaction buffer: 20 mM Hepes (pH 7.5), 10 mM MgCl2, 1 mM EGTA, 0.02% Brij35, 0.02 mg/mL BSA, 0.1 mM Na3VO4, 2 mM DTT, 1% DMSO. The tested compounds were dissolved in 100% DMSO to specific concentration. The serial dilution was conducted by Integra Viaflo Assist in DMSO (Sigma-Aldrich, Burlington, MA, USA). The reaction mixture containing the examined compound and 33P-ATP was incubated at room temperature for 2 h, and radioactivity was detected by filter-binding method. Kinase activity data were expressed as the percent remaining kinase activity in test samples compared to vehicle (dimethyl sulfoxide) reactions. IC50 values and curve fits were obtained using Prism (GraphPad Software, San Diego, CA, USA).

Another experiment addresses T3, KDR/VEGFR2 (Homo sapiens, UniProt P35968).
T3 construct: purchased Reaction Biology Co. (Kinase HotSpot service)
Briefly: Kinase panel assay, KDR/VEGFR2. The following applies: KDR/VEGFR2, 10 µM; read-out: Average % Enzyme Inhibition (Relative to DMSO Controls) at 10 µM. As to the method: as §1, with “The screening of the tested compounds was performed using the Kinase HotSpot^SM service from Reaction Biology Co. (http://www.reactionbiology.com, accessed on 25 September 2021). The HotSpot” for “The HotSpot”

Read-outs that look alike come from different tables or passages of the source.

T1 sequence (P00533 25-1210): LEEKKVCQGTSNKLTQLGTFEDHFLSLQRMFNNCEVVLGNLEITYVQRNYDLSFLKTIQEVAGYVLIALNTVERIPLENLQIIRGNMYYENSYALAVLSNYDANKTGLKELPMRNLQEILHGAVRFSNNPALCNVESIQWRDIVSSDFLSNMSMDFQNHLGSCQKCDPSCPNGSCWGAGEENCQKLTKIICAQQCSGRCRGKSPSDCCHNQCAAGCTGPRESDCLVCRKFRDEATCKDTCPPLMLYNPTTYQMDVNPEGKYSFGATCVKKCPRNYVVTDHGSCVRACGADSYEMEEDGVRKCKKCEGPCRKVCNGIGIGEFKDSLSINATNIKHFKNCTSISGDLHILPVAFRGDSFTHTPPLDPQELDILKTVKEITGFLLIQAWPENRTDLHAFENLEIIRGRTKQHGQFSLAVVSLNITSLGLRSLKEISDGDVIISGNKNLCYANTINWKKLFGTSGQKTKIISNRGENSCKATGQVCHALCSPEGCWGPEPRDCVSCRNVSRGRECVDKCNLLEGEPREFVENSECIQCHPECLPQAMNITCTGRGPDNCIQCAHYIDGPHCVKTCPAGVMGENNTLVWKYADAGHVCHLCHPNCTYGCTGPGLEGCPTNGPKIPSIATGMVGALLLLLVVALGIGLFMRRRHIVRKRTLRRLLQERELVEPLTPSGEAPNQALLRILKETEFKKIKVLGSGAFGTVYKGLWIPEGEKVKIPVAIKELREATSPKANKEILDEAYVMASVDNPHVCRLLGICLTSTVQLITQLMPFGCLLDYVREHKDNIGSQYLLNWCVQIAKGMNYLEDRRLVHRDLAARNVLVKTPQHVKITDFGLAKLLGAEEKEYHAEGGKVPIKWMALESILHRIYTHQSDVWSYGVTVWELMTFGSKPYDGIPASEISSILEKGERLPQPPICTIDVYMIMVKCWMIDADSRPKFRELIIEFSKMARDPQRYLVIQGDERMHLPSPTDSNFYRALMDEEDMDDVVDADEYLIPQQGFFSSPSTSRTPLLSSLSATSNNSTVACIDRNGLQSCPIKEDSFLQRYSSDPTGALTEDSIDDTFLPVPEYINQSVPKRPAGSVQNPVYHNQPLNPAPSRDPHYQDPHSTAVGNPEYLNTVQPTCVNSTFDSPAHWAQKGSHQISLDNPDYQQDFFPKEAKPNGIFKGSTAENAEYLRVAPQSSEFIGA
T3 sequence (P35968 20-1356): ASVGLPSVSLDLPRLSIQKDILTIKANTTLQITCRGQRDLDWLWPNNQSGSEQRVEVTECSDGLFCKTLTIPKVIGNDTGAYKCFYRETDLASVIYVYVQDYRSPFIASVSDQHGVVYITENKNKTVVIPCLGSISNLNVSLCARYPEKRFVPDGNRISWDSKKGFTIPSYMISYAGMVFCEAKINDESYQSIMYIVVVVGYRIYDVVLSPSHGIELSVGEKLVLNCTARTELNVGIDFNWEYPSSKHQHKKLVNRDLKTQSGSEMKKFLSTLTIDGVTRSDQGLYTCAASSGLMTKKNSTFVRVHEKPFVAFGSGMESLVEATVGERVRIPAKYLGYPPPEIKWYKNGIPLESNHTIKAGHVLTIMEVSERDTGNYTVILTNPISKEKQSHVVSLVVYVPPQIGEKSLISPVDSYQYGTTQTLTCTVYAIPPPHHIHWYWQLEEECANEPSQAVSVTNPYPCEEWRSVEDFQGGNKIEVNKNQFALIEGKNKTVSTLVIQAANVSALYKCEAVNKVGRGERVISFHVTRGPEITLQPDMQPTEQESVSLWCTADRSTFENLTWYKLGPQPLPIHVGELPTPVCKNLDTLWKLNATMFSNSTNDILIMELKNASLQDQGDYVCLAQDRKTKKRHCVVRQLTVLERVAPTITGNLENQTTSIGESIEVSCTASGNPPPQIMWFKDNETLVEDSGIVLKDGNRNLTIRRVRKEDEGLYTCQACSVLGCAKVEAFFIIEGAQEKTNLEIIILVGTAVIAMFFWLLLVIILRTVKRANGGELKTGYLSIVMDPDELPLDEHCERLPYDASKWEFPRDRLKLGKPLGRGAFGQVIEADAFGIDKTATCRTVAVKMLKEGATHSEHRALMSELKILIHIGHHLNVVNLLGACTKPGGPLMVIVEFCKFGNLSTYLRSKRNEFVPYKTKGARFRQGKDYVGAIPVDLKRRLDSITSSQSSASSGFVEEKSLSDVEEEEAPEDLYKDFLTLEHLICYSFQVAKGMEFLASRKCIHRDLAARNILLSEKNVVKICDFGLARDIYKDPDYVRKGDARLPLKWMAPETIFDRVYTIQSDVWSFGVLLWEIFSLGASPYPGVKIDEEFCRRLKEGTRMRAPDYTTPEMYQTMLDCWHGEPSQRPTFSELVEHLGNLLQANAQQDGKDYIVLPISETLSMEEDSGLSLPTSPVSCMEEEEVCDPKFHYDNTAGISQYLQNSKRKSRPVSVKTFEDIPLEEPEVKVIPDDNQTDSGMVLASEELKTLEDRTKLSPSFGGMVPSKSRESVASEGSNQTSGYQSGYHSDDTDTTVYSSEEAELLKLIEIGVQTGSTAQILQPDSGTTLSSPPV

As for `NS(=O)(=O)c1ccc(Nc2ncnc3ccc(-c4cccc(O)c4)cc23)cc1` [Compound 4c, 4-((6-(3-Hydroxyphenyl)quinazolin-4-yl)amino)benzenesulfonamide], the inhibition at 10 µM at EGFR kinase (EGFR kinase, 10 µM compound, 10 µM ATP as printed, read-out: Average % Enzyme Inhibition (Relative to DMSO Controls) at 10 µM) was 46.8 ± 0.54%; on EphB1 (EphB1, 10 µM, read-out: Average % Enzyme Inhibition (Relative to DMSO Controls) at 10 µM), 58.9 ± 1.98%; on KDR/VEGFR2, 47.8%. Moreover, the concentration for half-maximal inhibition (IC50) is 8.04 µM on EGFR kinase (EGFR kinase, dose dependent assay, read-out: IC50); 8.04 µM at EGFR kinase (EGFR, read-out: EC50 of the curve fit printed in Figure 6 (IC50 per legend)); 5.86 µM at EphB1 (EphB1, dose-dependent assay).

The term inhibition denotes the relative decrease from the control value, in per cent. For orientation: IC50 means the point on the concentration scale where inhibition reaches its midpoint.
